US20230210797A1, “PREVENTING AND TREATING HYPOGLYCEMIA” (DIAMYD MEDICAL AB, priority 2019, published 2023)

Tests used:
[1] = test system: growth hormone; test: Hypoglycemic clamp: plasma growth hormone levels; assay type: in vivo, human; settings: for Growth hormone levels, change from baseline, Mean / Growth hormone levels, change from baseline, Median / Growth hormone levels, observed value, Mean / Growth hormone levels, observed value, Median: C-peptide undetectable, n=5
Method: (§1) In order to evaluate the counterregulatory hormone response to hypoglycemia, a hypoglycemic clamp will be performed. The Hypoglycemic Clamp must be performed according to the instructions in the Operations Manual. (Appendix 3)
(§2) The patient should: • Come to the study site following an overnight fast (>10 hours), i.e. the patient may not eat but is permitted to drink water • Not have taken the Remygen and, if applicable, Alprazolam dose in the morning • Not take short acting/direct acting insulin within 6 hours before the investigation. • The patient is allowed to take base-insulin day/night before, but not in the morning before the investigation.
(§3) Patients with CSII (insulin pump) must continue with their basal dose insulin, but not add bolus dose during the last 6 hours before the investigation.
(§4) If a patient has a blood sugar level <4 mmol/L in the morning of the scheduled visit, the patient is allowed to take dextrose tablets and then come to the study site. The patient is allowed to perform the investigation if the blood sugar level is >4 mmol/L.
(§5) In the dose-escalation part of the study, the patient will take study drug 30 min prior to start of the hypoglycemic clamp. In the main study, the study drug will instead be taken after finalization of the hypoglycemic clamp. Baseline blood samples will be obtained for glucose, glucagon, epinephrine, norepinephrine, growth hormone and cortisol. The clamp will then be initiated by an intravenous insulin infusion at a rate of 2 mU×kg^−1×min^−1. Glucose 100 mg/ml will then be administered in variable infusion rates to clamp the blood glucose concentration at 5.5 mmol/land then at 2.5 mmol/land kept stable for 30 min. Blood glucose will be evaluated repeatedly in order to find the optimal glucose infusion rate. Blood sampling to determined levels of counterregulatory hormones as described above will be performed at each of these target levels when a stable glucose concentration has been reached. The insulin infusion will thereafter be terminated and the patient is allowed to eat and will be observed until normoglycemia is achieved. If necessary, additional glucose administration will be given to allow blood glucose concentrations to normalize.
(§6) Plasma glucose was first lowered to normoglycemic levels (5.5 mmol/L) and hormone levels monitored, and then to hypoglycemic levels (2.5 mmol/L) and hormone levels monitored. Difference was calculated as a measurement of the response to hypoglycemia.

[2] = test system: glucagon; test: Hypoglycemic clamp: plasma glucagon levels; assay type: in vivo, human; settings: for Glucagon levels, Change from baseline, Mean (SD) / Glucagon levels, Change from baseline, Median (Min, Max) / Glucagon levels, Observed value, Mean (SD) / Glucagon levels, Observed value, Median (Min, Max): C-peptide undetectable
Method: as §1, §2, §3, §4, §5, §6

[3] = Visit 5, 200 mg GABA per day, event 2.5 mmol/L
[4] = Visit 5, 200 mg GABA per day, event 5.5 mmol/L
[5] = Visit 5, 200 mg GABA per day, event Baseline
[6] = Visit 5, 200 mg GABA per day, event Diff 2.5-5.5 mmol/L
[7] = Visit 7, 600 mg GABA per day, event 2.5 mmol/L
[8] = Visit 7, 600 mg GABA per day, event 5.5 mmol/L
[9] = Visit 7, 600 mg GABA per day, event Baseline
[10] = Visit 7, 600 mg GABA per day, event Diff 2.5-5.5 mmol/L
[11] = Visit 9, 1200 mg GABA per day, event 2.5 mmol/L
[12] = Visit 9, 1200 mg GABA per day, event 5.5 mmol/L
[13] = Visit 9, 1200 mg GABA per day, event Baseline
[14] = Visit 9, 1200 mg GABA per day, event Diff 2.5-5.5 mmol/L
[15] = change in levels when clamping to 2.5 mmol/L from 5.5 mmol/L
[16] = Visit 5, 200 mg GABA per day, Event 2.5 mmol/L
[17] = Visit 5, 200 mg GABA per day, Event 5.5 mmol/L
[18] = Visit 5, 200 mg GABA per day, Event Baseline
[19] = Visit 5, 200 mg GABA per day, Event Diff 2.5-5.5 mmol/L
[20] = Visit 7, 600 mg GABA per day, Event 2.5 mmol/L
[21] = Visit 7, 600 mg GABA per day, Event 5.5 mmol/L
[22] = Visit 7, 600 mg GABA per day, Event Baseline
[23] = Visit 7, 600 mg GABA per day, Event Diff 2.5-5.5 mmol/L
[24] = Visit 9, 1200 mg GABA per day, Event 2.5 mmol/L
[25] = Visit 9, 1200 mg GABA per day, Event 5.5 mmol/L
[26] = Visit 9, 1200 mg GABA per day, Event Baseline
[27] = Visit 9, 1200 mg GABA per day, Event Diff 2.5-5.5 mmol/L

With `NCCCC(=O)O` [GABA, Gamma-amino butyric acid] the “Growth hormone levels, change from baseline, Mean” value [1, 3] was 4.560 µg/L, the “Growth hormone levels, change from baseline, Median” value [1, 3] was 3.400 µg/L and the “Growth hormone levels, observed value, Mean” value [1, 3] was 11.632 µg/L. For the same molecule, the “Growth hormone levels, observed value, Median” value [1, 3] was 4.000 µg/L, the “Growth hormone levels, change from baseline, Mean” value [1, 4] was -0.802 µg/L and the “Growth hormone levels, change from baseline, Median” value [1, 4] was 0.000 µg/L. For the same molecule, the “Growth hormone levels, observed value, Mean” value [1, 4] was 2.110 µg/L, the “Growth hormone levels, observed value, Median” value [1, 4] was 0.070 µg/L and the “Growth hormone levels, change from baseline, Mean” value [1, 5] was 0.475 µg/L. The “Growth hormone levels, change from baseline, Median” value [1, 5] was 0.035 µg/L, the “Growth hormone levels, observed value, Mean” value [1, 5] was 0.630 µg/L and the “Growth hormone levels, observed value, Median” value [1, 5] was 0.080 µg/L. For the same molecule, the “Growth hormone levels, change from baseline, Mean” value [1, 6] was 5.362 µg/L, the “Growth hormone levels, change from baseline, Median” value [1, 6] was 4.000 µg/L and the “Growth hormone levels, observed value, Mean” value [1, 6] was 9.522 µg/L. The “Growth hormone levels, observed value, Median” value [1, 6] was 3.440 µg/L, the “Growth hormone levels, change from baseline, Mean” value [1, 7] was 10.068 µg/L and the “Growth hormone levels, change from baseline, Median” value [1, 7] was 9.000 µg/L. The “Growth hormone levels, observed value, Mean” value [1, 7] was 17.140 µg/L, the “Growth hormone levels, observed value, Median” value [1, 7] was 11.700 µg/L and the “Growth hormone levels, change from baseline, Mean” value [1, 8] was -1.812 µg/L. For the same molecule, the “Growth hormone levels, change from baseline, Median” value [1, 8] was -0.340 µg/L, the “Growth hormone levels, observed value, Mean” value [1, 8] was 1.100 µg/L and the “Growth hormone levels, observed value, Median” value [1, 8] was 0.160 µg/L. The “Growth hormone levels, change from baseline, Mean” value [1, 9] was 2.098 µg/L, the “Growth hormone levels, change from baseline, Median” value [1, 9] was 0.090 µg/L and the “Growth hormone levels, observed value, Mean” value [1, 9] was 2.253 µg/L. The “Growth hormone levels, observed value, Median” value [1, 9] was 0.140 µg/L, the “Growth hormone levels, change from baseline, Mean” value [1, 10] was 11.880 µg/L and the “Growth hormone levels, observed value, Mean” value [1, 10] was 16.040 µg/L. For the same molecule, the “Growth hormone levels, observed value, Median” value [1, 10] was 10.820 µg/L, the “Growth hormone levels, change from baseline, Mean” value [1, 11] was 7.388 µg/L and the “Growth hormone levels, change from baseline, Median” value [1, 11] was 7.900 µg/L. The “Growth hormone levels, observed value, Mean” value [1, 11] was 14.460 µg/L, the “Growth hormone levels, observed value, Median” value [1, 11] was 14.000 µg/L and the “Growth hormone levels, change from baseline, Mean” value [1, 12] was -1.468 µg/L. The “Growth hormone levels, change from baseline, Median” value [1, 12] was -0.210 µg/L, the “Growth hormone levels, observed value, Mean” value [1, 12] was 1.444 µg/L and the “Growth hormone levels, observed value, Median” value [1, 12] was 0.170 µg/L. The “Growth hormone levels, change from baseline, Median” value [1, 13] was 0.100 µg/L, the “Growth hormone levels, observed value, Mean” value [1, 13] was 0.461 µg/L and the “Growth hormone levels, observed value, Median” value [1, 13] was 0.170 µg/L. The “Growth hormone levels, change from baseline, Mean” value [1, 14] was 8.856 µg/L, the “Growth hormone levels, change from baseline, Median” value [1, 14] was 6.900 µg/L and the “Growth hormone levels, observed value, Mean” value [1, 14] was 13.016 µg/L. The “Growth hormone levels, observed value, Median” value [1, 14] was 8.600 µg/L, the “Counter regulatory response of Growth hormone, effect of GABA treatment” value [1, 15] was “increased” and the “Normoglycemic levels of Growth hormone, effect of GABA treatment” value ([1]; clamped to 5.5 mmol/L) was “decrease”. For the same molecule, the “Glucagon levels, Change from baseline, Mean (SD)” value (from here on “Glucagon levels, Change … (SD)”) [2, 16] was 2.12 pmol/L, the “Glucagon levels, Change from baseline, Median (Min, Max)” value (“Glucagon levels, Change … (Min, Max)” below) [2, 16] was 1.60 pmol/L and the “Glucagon levels, Observed value, Mean (SD)” value [2, 16] was 4.88 (2.44) pmol/L. For the same molecule, the “Glucagon levels, Observed value, Median (Min, Max)” value [2, 16] was 4.80 pmol/L, the “Glucagon levels, Change … (SD)” value [2, 17] was -0.11 pmol/L and the “Glucagon levels, Change … (Min, Max)” value [2, 17] was 0.00 pmol/L. The “Glucagon levels, Observed value, Mean (SD)” value [2, 17] was 2.08 (1.33) pmol/L, the “Glucagon levels, Observed value, Median (Min, Max)” value [2, 17] was 2.20 pmol/L and the “Glucagon levels, Change … (SD)” value [2, 18] was 0.46 pmol/L. For the same molecule, the “Glucagon levels, Change … (Min, Max)” value [2, 18] was 0.60 pmol/L, the “Glucagon levels, Observed value, Mean (SD)” value [2, 18] was 3.92 (1.03) pmol/L and the “Glucagon levels, Observed value, Median (Min, Max)” value [2, 18] was 3.60 pmol/L. The “Glucagon levels, Change … (SD)” value [2, 19] was 2.23 pmol/L, the “Glucagon levels, Change … (Min, Max)” value [2, 19] was 1.85 pmol/L and the “Glucagon levels, Observed value, Mean (SD)” value [2, 19] was 2.80 (2.07) pmol/L. The “Glucagon levels, Observed value, Median (Min, Max)” value [2, 19] was 2.60 pmol/L, the “Glucagon levels, Change … (SD)” value [2, 20] was 1.64 pmol/L and the “Glucagon levels, Change … (Min, Max)” value [2, 20] was 1.40 pmol/L. The “Glucagon levels, Observed value, Median (Min, Max)” value [2, 20] was 4.20 pmol/L, the “Glucagon levels, Change … (SD)” value [2, 21] was -0.66 pmol/L and the “Glucagon levels, Change … (Min, Max)” value [2, 21] was -0.60 pmol/L. The “Glucagon levels, Observed value, Mean (SD)” value [2, 21] was 1.53 (1.32) pmol/L, the “Glucagon levels, Observed value, Median (Min, Max)” value [2, 21] was 0.75 pmol/L and the “Glucagon levels, Change … (SD)” value [2, 22] was -0.42 pmol/L. The “Glucagon levels, Change … (Min, Max)” value [2, 22] was -0.70 pmol/L, the “Glucagon levels, Observed value, Mean (SD)” value [2, 22] was 3.04 (0.66) pmol/L and the “Glucagon levels, Observed value, Median (Min, Max)” value [2, 22] was 3.10 pmol/L. For the same molecule, the “Glucagon levels, Change … (SD)” value [2, 23] was 2.30 pmol/L, the “Glucagon levels, Change … (Min, Max)” value [2, 23] was 2.10 pmol/L and the “Glucagon levels, Observed value, Mean (SD)” value [2, 23] was 2.87 (1.96) pmol/L. The “Glucagon levels, Observed value, Median (Min, Max)” value [2, 23] was 2.95 pmol/L, the “Glucagon levels, Change … (SD)” value [2, 24] was 3.16 pmol/L and the “Glucagon levels, Change … (Min, Max)” value [2, 24] was 3.30 pmol/L. For the same molecule, the “Glucagon levels, Observed value, Mean (SD)” value [2, 24] was 5.92 (3.70) pmol/L, the “Glucagon levels, Observed value, Median (Min, Max)” value [2, 24] was 5.60 pmol/L and the “Glucagon levels, Change … (SD)” value [2, 25] was -0.58 pmol/L. The “Glucagon levels, Change … (Min, Max)” value [2, 25] was -0.80 pmol/L, the “Glucagon levels, Observed value, Mean (SD)” value [2, 25] was 1.61 (1.18) pmol/L and the “Glucagon levels, Observed value, Median (Min, Max)” value [2, 25] was 0.75 pmol/L. For the same molecule, the “Glucagon levels, Change … (SD)” value [2, 26] was 0.96 pmol/L, the “Glucagon levels, Change … (Min, Max)” value [2, 26] was 0.50 pmol/L and the “Glucagon levels, Observed value, Median (Min, Max)” value [2, 26] was 3.90 pmol/L. The “Glucagon levels, Change … (SD)” value [2, 27] was 3.74 pmol/L, the “Glucagon levels, Change … (Min, Max)” value [2, 27] was 3.30 pmol/L and the “Glucagon levels, Observed value, Mean (SD)” value [2, 27] was 4.31 (4.33) pmol/L. The “Glucagon levels, Observed value, Median (Min, Max)” value [2, 27] was 2.60 pmol/L, the “Counter regulatory response of Glucagon, effect of GABA treatment” value [2, 15] was “increased” and the “Normoglycemic levels of Glucagon, effect of GABA treatment” value ([2]; clamped to 5.5 mmol/L) was “decrease”. The “Circulating glucagon concentrations, effect of GABA” value ([2]; type 1 diabetes individuals with pathologically increased glucagon) was “lower”.
